Experimental data published in US10106558B2, “Azolobenzazine compounds, compositions comprising these compounds and their use for controlling invertebrate pests” (BASF SE, priority 2015, dated 2018).

What was measured:
Format in all cases: in vivo
[1] = system: Mediterranean fruitfly (Ceratitis capitata); test: Action on Mediterranean fruitfly, eggs on insect diet in microtiter plates; settings: 120 h, egg and larval mortality visually assessed after 5 days, read-out: mortality in comparison with untreated controls
In short: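 Microtiter plates held insect diet plus 50-80 C. capitata eggs; compounds in 75% water/25% DMSO were sprayed onto the diet at several concentrations, two replicates. Plates were kept at about […] and […] relative humidity for 5 days, then egg and larval mortality was scored visually.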

[2] = system: yellow fever mosquito (Aedes aegypti); test: whole plant or invertebrate; settings: 48 h, larval mortality visually assessed after 2 days, read-out: mortality in comparison with untreated controls
In short: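 Freshly hatched larvae (5-15 per well) held in 200 μl tap water; compounds formulated in 25% DMSO/water and 2.5 μl sprayed at several concentrations, two replicates. Plates kept 2 days at 28 °C, 80% RH, then larval mortality scored visually.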

[3] = system: Orchid Thrips (Dichromothrips corbetti); test: Action on orchid thrips, floral-immersion technique; settings: adult thrips, 72 hours after treatment, read-out: mortality in comparison with untreated controls
In short: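 Lab-colony adult thrips, about 20 per arena, were exposed to whole orchid flower petals dipped in compound diluted in 1:1 acetone:water with 0.01% v/v Kinetic HV and then dried. Arenas were held under continuous light at about 28 °C. Live thrips were counted after 3 days and percent mortality recorded at 72 h post-treatment.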

[4] = system: Silverleaf Whitefly (Bemisia argentifolii) (Adults); test: Action on silverleaf whitefly adults, sprayed cotton plants; settings: 72 h, 3 days after treatment, read-out: mortality in comparison with untreated controls
In short: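 Compounds diluted from cyclohexanone stocks into 50% acetone/water with 0.01% nonionic surfactant and electrostatically sprayed onto cotyledon-stage cotton. Dried plants were infested with 10–12 adults (3–5 days old), held ~25 °C, 20–40% RH for 3 days; mortality scored at day 3 vs untreated plants.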

[5] = system: Southern Armyworm (Spodoptera eridania), 2nd instar larvae; test: Action on southern armyworm 2nd instar larvae, sprayed lima bean plants; settings: 96 h, 4 days after treatment, read-out: mortality in comparison with untreated controls
In short: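 Lima bean plants (Sieva, 1st true leaf) sprayed electrostatically with compound in 50% acetone/water plus 0.01% nonionic surfactant, dried, then infested with 10–11 larvae in bags. Held at about 25 °C, 20–40% RH; mortality and reduced feeding scored 4 days after treatment versus untreated plants.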

[6] = system: vetch aphid (Megoura viciae); test: Action on vetch aphid, broad bean leaf disks in 24-well microtiter plates; settings: foliar, 120 h, adult aphids on treated leaf disks, 5 days, read-out: mortality in comparison with untreated controls
Procedure: Example B7: Action on Vetch Aphid (Megoura viciae)
For evaluating control of vetch aphid (Megoura viciae) through contact or systemic means the test unit consisted of 24-well-microtiter plates containing broad bean leaf disks.
The compounds were formulated using a solution containing 75% v/v water and 25% v/v DMSO. Different concentrations of formulated compounds were sprayed onto the leaf disks at 2.5 μl, using a custom built micro atomizer, at two replications.
After application, the leaf disks were air-dried and 5-8 adult aphids placed on the leaf disks inside the microtiter plate wells. The aphids were then allowed to suck on the treated leaf disks and incubated at about 23±1° C. and about 50±5% relative humidity for 5 days. Aphid mortality and fecundity was then visually assessed.

[7] = system: Diamond Back Moth (Plutella xylostella); test: Action on diamond back moth, dipped cabbage leaves; settings: 3rd instar larvae, 72 hours after treatment, read-out: mortality in comparison with untreated controls
In short: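 Cabbage leaves dipped in compound in 1:1 water:acetone with 0.01% (vol/vol) surfactant, air-dried, placed on moist filter paper and infested with ten 3rd-instar larvae. Mortality scored 72 hours after treatment; feeding damage rated on a 0-100% scale.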

Cc1ccc(C(C)C)c(N2C(=O)CS/C2=N\N=C\c2ccc3c(ccc4c3ncn4-c3ccc(OC(F)(F)F)cc3)n2)c1 [Compound C-6, (2Z)-3-(2-isopropyl-5-methyl-phenyl)-2-[(E)-[3-[4-(trifluoromethoxy)phenyl]imidazo[4,5-f]quinolin-7-yl]methylenehydrazono]thiazolidin-4-one]
≥ 75%: mortality at 800 ppm [1] | mortality at 800 ppm [2] | mortality at 500 ppm [3] | mortality at 500 ppm [4] | mortality at 500 ppm [5] | mortality at 800 ppm [6] | mortality at 500 ppm [7]
